Here are results for 16 compounds from article PMC11855827, “High-Throughput Screening of Five Compound Libraries for Anthelmintic Activity and Toxicity Leads to the Discovery of Two Flavonoid Compounds” (International Journal of Molecular Sciences, 2025).

The experiment deals with C. elegans.
[1] abbreviates: Table S2, C. elegans SS assay, 110 μM, averages of 4 data points.

Where two headings read alike, the source gives them in different places. Where no end group is shown, it is not given here.

On to Dryocrassin ABBA, for which, under setting [1], the “Percentage of motility inhibition 0 h” value was found to be 12% and the “Percentage of motility inhibition 24 h” value is given as 18%.
Taken in the same sequence, the figures for `COc1ccc(-c2cc(=O)c3c(OC)cc(OC)cc3o2)cc1` [5,7,4'‐Trimethoxyflavone] were 0% and 1%.
On the same counts, the results for `CC(=O)O.CC(=O)O.CC[C@H](C)C[C@H](C)CCCCCCCCC(=O)N[C@H]1C[C@@H](O)[C@@H](NCCN)NC(=O)[C@@H]2[C@@H](O)CCN2C(=O)[C@H]([C@H](O)CCN)NC(=O)[C@H]([C@H](O)[C@@H](O)c2ccc(O)cc2)NC(=O)[C@@H]2C[C@@H](O)CN2C(=O)[C@H]([C@@H](C)O)NC1=O` [Caspofungin (Acetate)] are 27% and 4%.
For `Cc1c(C)c2c(c(C)c1O)CC[C@@](C)(CCC[C@H](C)CCC[C@H](C)CCCC(C)C)O2` [α-Vitamin E], under setting [1], the “Percentage of motility inhibition 0 h” value was found to be 53% and the “Percentage of motility inhibition 24 h” value is on record as 11%.
As for RKDVY [Thymopentin (acetate)], the “Percentage of motility inhibition 0 h” value (110 μM) came out at 4%. In addition, under “110 µM”, the “Percentage of motility inhibition 24 h” value is 4%.
Consider `CC(=O)O[C@@H]1CC[C@]2(C)C3=C(CC[C@H]2C1(C)C)[C@]1(C)CC[C@H]([C@@H](CCC=C(C)C)C(=O)O)[C@@]1(C)CC3` [Tsugaric acid A], for which, under setting [1], the “Percentage of motility inhibition 0 h” value is 12% and the “Percentage of motility inhibition 24 h” value came to 12%.
Regarding `Cc1c(O)c(O)cc2c1CC=C1[C@@]2(C)CC[C@@]2(C)[C@@H]3C[C@](C)(C(=O)O)CC[C@]3(C)CC[C@]12C` [Triptohypol C], under setting [1], the “Percentage of motility inhibition 0 h” value came to 0% and the “Percentage of motility inhibition 24 h” value is reported as 43%.
Turning to `Cl.Clc1ccc(Cn2c(CN3CCCC3)nc3ccccc32)cc1` [Clemizole (hydrochloride)], under setting [1], the “Percentage of motility inhibition 0 h” value was determined as 25% and the “Percentage of motility inhibition 24 h” value amounted to 69%.
Take `COC1=CC(=O)OC(/C=C/c2ccccc2)C1` (single isomer, unassigned; (+)) [(+)-Kavain]: under setting [1], the “Percentage of motility inhibition 0 h” value is reported as 5% and the “Percentage of motility inhibition 24 h” value is 13%.
Taken in the same sequence, the figures for `COc1cc2c[n+](C)c3c4cc5c(cc4ccc3c2cc1OC)OCO5.[Cl-]` [Nitidine (chloride)] were 0% and 7%.
On the same counts, the results for `COc1ccc(CC2c3cc(OC)c(OC)cc3CCN2C)cc1OC` (stereo not drawn) [DL‐Laudanosine] are 7% and 12%.
On the same counts, the results for `C[C@@H]1O[C@@H](O[C@H]2[C@H](Oc3c(-c4ccc(O)cc4)oc4cc(O)cc(O)c4c3=O)O[C@H](CO)[C@@H](O)[C@@H]2O)[C@H](O)[C@H](O)[C@H]1O` [Kaempferol 3‐neohesperidoside] are 17% and 10%.
With `C[C@@H]1CC[C@]2(C(=O)O)CC[C@]3(C)C(=CC[C@@H]4[C@@]5(C)C[C@@H](O)[C@H](O)C(C)(C)[C@@H]5CC[C@]43C)[C@@H]2[C@]1(C)O` [Tormentic acid], under setting [1], the “Percentage of motility inhibition 0 h” value stood at 3% and the “Percentage of motility inhibition 24 h” value is recorded as 5%.
On the same counts, the results for `CN1CCC=C(C(=O)O)C1` [Arecaidine] are 16% and 0%.
Taken in the same sequence, the figures for `O=c1cc(-c2ccc(O)c(O)c2)oc2cc(O[C@@H]3O[C@H](CO)[C@@H](O)[C@H](O)[C@H]3O)c(O)c(O)c12` [6‐Hydroxyluteolin 7‐glucoside] were 0% and 10%.
Taken in the same sequence, the figures for `C=C(C(=O)O)[C@@H]1CC[C@@]2(C)CCCC(=C)[C@]2(O)C1` [5α-Hydroxycostic acid] were 13% and 18%.
